{"source": "patent US10000787B2", "about": "“Methods for diagnosing bacterial infections” (STC.UNM, priority 2012, dated 2018)", "molecular_target": "T1, pHPA decarboxylase (Clostridioides difficile, UniProt Q84F16)", "T1 construct": "Isolated cell free extract of C. difficile; endogenous in cells; host or cells: C. difficile cell-free extract", "T1 sequence (Q84F15 whole entry)": "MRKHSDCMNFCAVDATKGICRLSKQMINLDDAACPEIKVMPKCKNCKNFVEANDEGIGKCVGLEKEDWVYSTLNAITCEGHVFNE", "T1 sequence (Q84F16 whole entry)": "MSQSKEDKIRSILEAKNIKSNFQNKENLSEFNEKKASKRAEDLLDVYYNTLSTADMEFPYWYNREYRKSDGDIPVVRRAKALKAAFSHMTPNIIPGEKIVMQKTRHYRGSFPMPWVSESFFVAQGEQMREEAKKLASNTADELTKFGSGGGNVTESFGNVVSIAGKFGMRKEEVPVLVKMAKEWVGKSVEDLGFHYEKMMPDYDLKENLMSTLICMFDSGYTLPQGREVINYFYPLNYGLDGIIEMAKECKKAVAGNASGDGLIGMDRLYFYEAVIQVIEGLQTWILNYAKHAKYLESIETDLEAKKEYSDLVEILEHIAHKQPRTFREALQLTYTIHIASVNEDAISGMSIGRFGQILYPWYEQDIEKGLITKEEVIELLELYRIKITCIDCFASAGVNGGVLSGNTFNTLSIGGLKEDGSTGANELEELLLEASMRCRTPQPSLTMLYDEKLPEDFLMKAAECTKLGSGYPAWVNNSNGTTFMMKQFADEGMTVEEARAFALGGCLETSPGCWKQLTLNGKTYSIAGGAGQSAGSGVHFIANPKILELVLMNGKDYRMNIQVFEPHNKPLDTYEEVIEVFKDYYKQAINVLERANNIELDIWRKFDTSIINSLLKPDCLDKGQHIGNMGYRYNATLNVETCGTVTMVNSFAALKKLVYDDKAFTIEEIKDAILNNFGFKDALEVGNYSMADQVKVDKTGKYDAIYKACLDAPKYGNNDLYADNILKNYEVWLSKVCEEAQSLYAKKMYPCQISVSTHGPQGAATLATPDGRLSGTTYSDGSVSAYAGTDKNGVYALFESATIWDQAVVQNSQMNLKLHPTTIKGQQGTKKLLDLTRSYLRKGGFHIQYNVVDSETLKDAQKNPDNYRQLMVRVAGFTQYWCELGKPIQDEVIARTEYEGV", "experiment": "estimated ^13CO2 production from labeled substrate by pHPA decarboxylase in a C. difficile infection", "type": "in vivo", "settings": "infection in which 10 mg of bacterial protein is present; worked out from 12 mU per mg of protein pHPA decarboxylase in isolated cell free extract of C. difficile", "protocol": "The compositions of the invention can also be administered intravenously. Isolated cell free extract of C. difficile contains 12 mU per mg of protein of the activating enzyme pHPA decarboxylase. This correlates to the production of 2.7 mL of ^13CO2 per minute in an infection in which 10 mg of bacterial protein is present when a patient is treated with a compound of the invention, for example, ^13C-hydroxyphenylacetate. Oftentimes, a patient is infected with much more than 10 mg of bacterial protein with a C. difficile infection.\nAssuming 15 liters of air is respired per minute, and with 4% exhaled CO2, a patient will exhale about 600 ml of CO2 per minute, of which approximately 6.6 mLs will be ^13CO2. […] Thus, efficient delivery of isotopically-labeled compound is important. Preferably, an intravenous dosage form is administered to the patient, leading to rapid increases in intestinal levels, and allowing breath testing from 10 to 120 minutes after dosage. Such dosage forms are sterile and particle-free. Preparation methods for such dosage forms are known in the art."}
{"substance": "^13C-hydroxyphenylacetate", "values": [{"measurement": "production of ^13CO2", "value": 2.7, "unit": "mL per minute"}]}
